Test results reported in the METLIN SMRT retention time set (Domingo-Almenara et al. 2019).

Assay: gradient 5% acetonitrile 3 min, to 50% in 2 min, to 85% in 15 min, held 3 min, 100 µL/min
Conditions: column: Zorbax Extend-C18 2.1 x 50 mm; eluents: water / acetonitrile, 0.1% formic acid
Outline: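 Data were gathered over 3 months by HPLC coupled to a quadrupole time-of-flight mass spectrometer, operated in positive and negative ionization mode. Mixtures of ~100 pure standards ran on a Zorbax Extend-C18 column (2.1 × 50 mm, 1.8 μm) at 100 μL/min, with water and acetonitrile each containing 0.1% formic acid and dead and dwell volumes of 40 μL and 900 μL. Retention time was read from adduct peaks picked by computer and checked manually.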

| Structure (SMILES) | RP-LC retention time [s] |
| --- | --- |
| COc1ccc(NC(=O)Cn2c(=O)n(-c3ccc(F)cc3)c(=O)c3c2cc(C)n3C)cc1Cl | 873 |
| COc1ccc(CNC(=O)Nc2ccc(-c3nc(-c4ccc(C)cc4C)co3)cc2)cc1 | 1180 |
| COc1ccc(Br)c2c1-c1nc(NC(=O)c3cccc(F)c3)sc1C2 | 1210 |
| CN1CC[C@@H](c2ccc(F)cc2)[C@H](COc2ccc3c(c2)OCO3)C1 | 766 |
| c1ccc2c(N3CCNCC3)cccc2c1 | 690 |
| c1cncc(-c2nc(-c3ccnc(N4CCOCC4)c3)no2)c1 | 953 |
| CCOC(=O)c1[nH]c(C)c(CCC(=O)NCc2ccc3c(c2)OCO3)c1C | 780 |
| CC(C)(C)c1cc(C(N)=O)n[nH]1 | 602 |
| O=C1COc2ccc(Cl)cc2N1Cc1nc(-c2ccc(-c3csc(C4CC4)n3)cc2)no1 | 1310 |
| COc1ccccc1-n1ccn2cc(-c3cccc(Cl)c3)nc2c1=O | 873 |
| Cc1nc(-c2cn(C(C)C)c3ncccc23)sc1C(=O)NCc1cccs1 | 970 |
| CCNS(=O)(=O)c1cccnc1Nc1cccc(Br)c1 | 1040 |
| Fc1ccc(-c2noc(CCc3nnc4ccc(N5CCN(Cc6ccccc6)CC5)nn34)n2)cc1 | 656 |
| COc1ccc(-c2cn3c(CC(=O)Nc4ccccc4)csc3n2)cc1OC | 702 |
| CN(C)c1ccc(/C=C2\Cc3ccccc3C2=O)cc1Br | 1170 |
| Cc1cc(C)cc(N2CC(c3nc(-c4ccc5c(c4)OCO5)no3)CC2=O)c1 (stereo not drawn) | 1040 |
| COc1ccc(-c2noc(Cc3nnc(-c4ccc(C)c(C)c4)o3)n2)cc1OC | 997 |
| CCc1nn(C)c(=O)c2cc(S(=O)(=O)NCc3ccccc3)cn12 | 831 |

| Structure (SMILES) | RP-LC retention time [s] |
| --- | --- |
| COc1ccc(Br)cc1C1C(C(=O)N2CCOCC2)=C(C)NC2=C1C(=O)CC(C)(C)C2 (stereo not drawn) | 683 |
| COc1ccc(CN(C(=O)COc2c(C)cccc2C)C2CCS(=O)(=O)C2)cc1OC (stereo not drawn) | 847 |
| Cc1ccc2nc(-c3ccc(O)cc3)c(Nc3ccc4c(c3)OCO4)n2c1 | 633 |
| COc1nc2c(c(C)nn2-c2ccccc2)c(C)c1CCC(=O)NCCc1c[nH]c2ccccc12 | 1130 |
| CC(C)n1c(=O)oc2cc(-c3noc(-c4cccc(Br)c4)n3)ccc21 | 1340 |
| COC(=O)c1cn(CC(=O)Nc2cc(OC)ccc2OC)c2ccccc12 | 946 |
| COc1ccc(OC)c(NC(=O)CN2C(=O)C(C)(C)c3cc(C)ccc32)c1 | 915 |
| CN(CCc1noc(COc2ccccc2F)n1)C(=O)c1cccs1 | 835 |
| COc1ccc(-c2nc(Cc3noc(-c4ccccc4)n3)c(C)o2)cc1 | 1100 |
| CN1CC[C@@]23CCCC[C@@H]2[C@@H]1Cc1ccc(O)cc13 | 644 |
| Cc1cc2c(cc1S(=O)(=O)N1CCCC1C(=O)Nc1ccc(F)cc1Cl)OC(C)C(=O)N2 (stereo not drawn) | 849 |
| COC(=O)c1cnc2nc(C)ccc2c1Nc1cc(OC)ccc1OC | 667 |
| COc1ccc(-c2ccc3ncc4c(c3c2)n(-c2ccc(N3CCNCC3)c(C(F)(F)F)c2)c(=O)n4C)cn1 | 630 |
| Cc1ccccc1-c1csc2c(=O)n(CC(=O)OC(C)(C)C)cnc12 | 1060 |
| O=C(Cn1c(=O)c2nncn2c2ncccc21)NCc1cc(F)ccc1F | 654 |
| Cc1ccc(-c2nnc(-c3cccnc3N3CCC4(CC3)OCCO4)o2)cc1 | 962 |
| CCCOc1nc2c(c(=O)n(C)c(=O)n2C)n1C | 788 |
| CC(C)n1ccc(C(=O)Nc2nnc(-c3cc(Cl)sc3Cl)o2)n1 | 858 |

The next lines start with the values.

| RP-LC retention time [s] | Structure (SMILES) |
| --- | --- |
| 862 | CCSC1=C(C#N)C(c2ccccc2Cl)C(C(=O)Nc2ccccc2C)=C(C)N1 (stereo not drawn) |
| 862 | O=C(NC1CCCC1)c1cccc2c1CCN2C(=O)c1ccc(F)cc1 |
| 751 | CC1(C(=O)NCc2ccccc2)Cc2ccccc2C(=O)N1C1CC1 (stereo not drawn) |
| 1290 | CCc1ccc(S(=O)(=O)N2CCCC2c2nc(-c3ccc(Cl)cc3)no2)cc1 (stereo not drawn) |
| 1090 | O=C(c1cn(-c2cc(N3CCSCC3)ncn2)cn1)N1CCC(Cc2ccccc2)CC1 |
| 804 | O=C(NC1CCCCCC1)c1ccc2c(c1)nc1n2CCN(c2ccccc2)C1=O |
| 679 | COc1cccc(C(=O)N2C[C@@H]3C[C@H](NC(=O)c4cccs4)[C@H]2C3)c1OC |
| 579 | CC(C)CN1CCN(C(=O)CN2CCN(Cc3ccccc3)C2=O)CC1 |
| 626 | Cc1noc(CNC(=O)c2n[nH]c3ccccc23)n1 |
| 784 | CCCCN(CC)C(=O)C1CCN(S(=O)(=O)c2ccc3c(c2)NC(=O)CO3)CC1 |
| 823 | CN1C(=O)c2cc(C(=O)NCCc3ccc(Cl)cc3)nn2CC1(C)C(=O)NCc1ccccc1 (stereo not drawn) |
| 655 | Cn1c(=O)n(C2CCN(C(=O)Cc3ccccc3)CC2)c2ncncc21 |
| 1090 | O=C(Nc1ccc(Cl)cc1F)c1cc(C2CC2)on1 |
| 707 | Cc1ccc(CN2CCC(CNC(=O)c3sc4ncccc4c3-n3cccc3)C2)cc1 (stereo not drawn) |
| 543 | CN1CCN(CCNC(=O)CCc2c(-c3ccc(Br)cc3)nc3ccccn23)CC1 |
| 560 | COc1ccc(C(=O)c2cnc3cc4c(cc3c2N2CCN(C)CC2)OCCO4)cc1 |
| 675 | O=C(Nc1ccccn1)C1CCCN(c2ncnc3c2nc2n3CCCCC2)C1 (stereo not drawn) |
| 749 | COCCNC(=O)c1c(C)sc2ccn(Cc3ccc(F)cc3)c(=O)c12 |
| 776 | COCCCNc1c(-c2cccc(F)c2)nc2sc(C(=O)N(C)C)c(C)n12 |
| 789 | CC(C)C(=O)N1CCCc2ccc(NC(=O)c3ccco3)cc21 |
| 1040 | COc1ccc(-c2nnc(-c3cc(S(=O)(=O)N4CCCC4)ccc3Cl)o2)cc1 |
| 839 | CCc1noc(NC(C)=O)c1-c1ccc(C)c(S(=O)(=O)NC2CCCCC2)c1 |
| 605 | Cc1cccc2nnc(N3CCN(C(=O)c4cc5c(s4)CCCC5)CC3)n12 |
| 716 | Cc1cccc(NS(=O)(=O)c2cc(-c3[nH]ncc3C(=O)N3CCCC3)oc2C)c1 |
| 843 | O=C(O)c1ccc2c(ccn2Cc2ccccc2)c1 |
| 917 | Cc1oc(C2CCN(S(=O)(=O)CCc3ccccc3)CC2)nc1C(=O)N1CCCC1 |

| RP-LC retention time [s] | Structure (SMILES) |
| --- | --- |
| 641 | Cc1nnsc1C(=O)N1CCC(CNC(=O)Cn2c(=O)oc3ccccc32)CC1 |
| 748 | COc1ccc(N2CCN(c3cc(SCC(=O)NCc4ccco4)ncn3)CC2)cc1 |
| 689 | CCn1nnc2ccc(-c3noc(C(C)NC(=O)c4ccccc4)n3)cc21 (stereo not drawn) |
| 628 | O=C(N[C@@H]1CN(c2ncccn2)C[C@H]1CO)c1ccc(Cl)cc1 |
| 869 | O=S(=O)(c1cccn2c(SCc3ccccc3F)nnc12)N1CCCCC1 |
| 629 | Cc1cccc2nnc(N3CCN(C(=O)c4ccc(Cl)cc4)CC3)n12 |
| 531 | c1ccc(-c2n[nH]c(C3CCCN(Cc4ccoc4)C3)n2)cc1 (stereo not drawn) |
| 797 | CCc1ccc(NC(=O)Cn2ncc3c(c2=O)N(C2CC2)C(=O)CS3)cc1 |
| 900 | Cc1ccc2c(c1)N(Cc1cc(F)cc(F)c1)N=C(C(=O)N1CCCC1)S2(=O)=O |
| 677 | Cc1cc(SCC(=O)N2CCCc3ccccc32)nc(=O)[nH]1 |
| 826 | CCOc1cccc2c1OC1(CCN(C(C)=O)CC1)N1N=C(c3ccc4c(c3)OCO4)CC21 (stereo not drawn) |
| 753 | Cc1ccc(NC(=O)NCC(c2cccnc2)c2cn(C)c3ccccc23)cc1C (stereo not drawn) |
| 1110 | O=C(c1ccccc1Br)N1CCc2nc(-c3ccc(Cl)cc3)ncc2C1 |
| 784 | COc1ccc(C(=O)N2CCC3(CC2)N=C(c2ccc(Cl)cc2)NO3)cc1OC |
| 527 | CN(C)C[C@@H]1CN(c2ccncn2)C[C@H]1NC(=O)c1ccc2c(c1)OCO2 |
| 952 | COc1ccc(-c2noc(C3CCCN3C(=O)Nc3ccc(OC)cc3OC)n2)cc1 (stereo not drawn) |
| 926 | COc1ccc(-c2ccc3nc(N4CCC(C(=O)NC(C)C)CC4)sc3n2)cc1 |
| 1210 | CCn1c(C(=O)N2CCCC(C(=O)NC(C)C34CC5CC(CC(C5)C3)C4)C2)cc2sccc21 (stereo not drawn) |
| 831 | Cc1ccc(-c2noc(-c3cccc(S(=O)(=O)NCCN4CCC(C)CC4)c3)n2)cc1 |
| 803 | Cc1nnc(N2CCCC(C(=O)NCCC3=CCCCC3)C2)c2nn(-c3ccccc3)c(C)c12 (stereo not drawn) |
| 900 | Cc1noc(-c2cc(=O)n(CC(=O)Nc3ccccc3Cl)c3ccccc23)n1 |
| 708 | Cc1cc(=O)n(CC(=O)Nc2cc(F)ccc2F)c(N2CCCCC2)n1 |
| 1020 | Cc1ccc(CNC(=O)CN2C(=O)C(Oc3ccc(F)cc3)C23CCCCC3)o1 (stereo not drawn) |
| 1010 | CCn1c(=O)sc2cc(S(=O)(=O)N3CCC(C(=O)Nc4cccc5c4CCCC5)CC3)ccc21 |
| 855 | O=C(NC1CCCC1)c1nnc(-c2ccc(S(=O)(=O)N3CCCC3)cc2)o1 |
| 678 | O=C(NCCN1CCCCC1)c1ccc(I)cc1 |
